What was measured:
[1] = test system: T1, C. trachomatis L2/434/Bu expressing GFP (CTL2-GFP); assay: microbe, parasite or virus in culture; set-up: C. trachomatis total inclusion area by high-content imaging, normalised to DMSO; conditions: Chlamydia trachomatis, HeLa, 28.5 h; total inclusion area; read-out: % of control remaining
T1 construct: L2/434/Bu GFP intracellular growth in HeLa cells
Source text: We screened a library of 36,785 small molecules displaying drug-like properties and covering a wide chemical space (Fig 1A and S2A Data). In this process, we also complemented the assay described above with an imaging-based readout (Fig 1B). After measurements of bulk GFP and resorufin fluorescence, cells were fixed, stained with the DNA dye Hoechst, and imaged at a high-content imaging platform to detect chlamydial inclusions (GFP) and host cell nuclei (Hoechst). The total area and number of inclusions in individual wells and the number of nuclei then served as additional proxies for chlamydial growth and host cell viability. […] MICs were calculated as described above.

[2] = test system: T2, CTL2-GFP (C. trachomatis L2/434/Bu, GFP-expressing); assay: microbe, parasite or virus in culture; set-up: Intracellular C. trachomatis growth in HeLa cells, bulk GFP fluorescence relative to DMSO; conditions: Chlamydia trachomatis, HeLa, 28.5 h; bulk GFP, mean of 2; read-out: % of control remaining
T2 construct: L2/434/Bu, GFP-expressing
Experimental: MICs were calculated as described above.

[3] = in vitro; set-up: Viability of infected HeLa host cells, resazurin conversion, bulk resorufin fluorescence relative to DMSO; conditions: human, hela cells; bulk resorufin, mean of 2

| SMILES | activity at 1 µM [1] | activity at 5 µM [1] | activity at 10 µM [1] | activity at 1 µM [2] | activity at 5 µM [2] | activity at 10 µM [2] | viability at 28.5 h, 1 µM [3] | viability at 28.5 h, 5 µM [3] | viability at 28.5 h, 10 µM [3] |
| --- | --- | --- | --- | --- | --- | --- | --- | --- | --- |
| CN(C)[C@H]1CCC[C@@H]1C(=O)Nc1ccc(Cl)c(Cl)c1 [CBK003406] | 112% | 76.4% | 20.8% | 90.9% | 67.2% | 13% | 105% | 109% | 107% |
| Cc1ccc(OCC(O)CN2CCN(c3nc(-c4ccccc4)ns3)CC2)c([N+](=O)[O-])c1 (stereo not drawn) [CBK074696] | 113% | 55.9% | 68.2% | 147% | 120% | 133% | 104% | 99.5% | 102% |
| COc1ccc2cc3c(nc2c1)OC(=O)N(CC1CC1)C3 [CBK282432] | 90.9% | 15.2% | 0.584% | 92.7% | 19% | 0.603% | 112% | 108% | 110% |
| COc1ccccc1N/C(=N\OCc1ccc(Cl)cc1Cl)c1nonc1N [CBK018391] | 89.5% | 84% | 56.1% | 137% | 122% | 103% | 90.7% | 92.4% | 94.7% |
| COc1ccc([C@H]2CN(Cc3ccccc3)[C@@H]3CCN(C(=O)Cc4ccccc4)C[C@H]23)cc1 [CBK286285] | 109% | 95.8% | 41.4% | 130% | 111% | 49.2% | 93.8% | 97.6% | 104% |
| Cn1cncc1C(=O)NCc1ccccc1 [CBK200199] | 111% | 106% | 69.3% | 95.8% | 109% | 110% | 114% | 107% | 104% |
| CC(C)(N)CNC(=O)c1cc(C(C)(C)C)nn1Cc1ccc(Cl)cc1Cl [CBK107296] | 87.7% | 54.2% | 26.9% | 115% | 76.6% | 36% | 91.1% | 95.2% | 93.8% |
| CN1CCN(c2cc3c(cc2F)c(=O)c(C(=O)O)cn3-c2ccc(F)cc2)CC1 [CBK287138] | 11.1% | 0.783% | 0.31% | 14.6% | 5.16% | 0.93% | 103% | 102% | 104% |
| CCCCC(=O)/N=C(\N)Nc1nc2ccccc2o1 [CBK287937] | 100% | 71.1% | 60.6% | 119% | 117% | 117% | 106% | 102% | 100% |
| O=C(CC1SC(Nc2ccc(O)cc2)=NC1=O)c1ccccc1 (stereo not drawn) [CBK267009] | 84.6% | 35.2% | 35.5% | 65.7% | 34% | 33% | 114% | 112% | 107% |
| CCCN(CCC)CCc1cccc2c1CCN2C(=O)c1cc2ccccc2s1 [CBK017871C] | 58% | 26.8% | 2.13% | 42.3% | 18.2% | 9.45% | 96.8% | 96.9% | 97.3% |
| Cc1cc(C)nc(NC(=N)NCCc2c[nH]c3ccccc23)n1 [CBK266321] | 75.6% | 44.4% | 14.7% | 89.2% | 67.2% | 37.1% | 109% | 98.8% | 81.2% |
| CC(Nc1cccc2ccccc12)C(=O)N/N=C/c1c(O)ccc2ccccc12 (stereo not drawn) [CBK262678] | 100% | 47.4% | 21% | 132% | 74.4% | 72.2% | 90.9% | 83% | 74.2% |
| O=C(CSCc1ccc(Cl)cc1)Nc1ccc(S(=O)(=O)N2CCCCCC2)cc1 [CBK267017] | 92.3% | 104% | 54.9% | 99.4% | 85% | 60.7% | 101% | 104% | 104% |
| CN1CCN(c2ccc3ccn(S(=O)(=O)c4ccc([N+](=O)[O-])cc4)c3n2)CC1 [CBK070757C] | 106% | 64% | 24.6% | 140% | 89.2% | 46.7% | 89.6% | 87.7% | 86% |
| CCOc1ccsc1C(=O)Nc1cc(C)ccn1 [CBK004029] | 116% | 64.9% | 19.7% | 122% | 61.7% | 32.4% | 92.3% | 92.3% | 71.7% |
| CN(C)CCCNC(=O)c1ccc([N+](=O)[O-])o1 [CBK262118] | 104% | 60.7% | 34.6% | 133% | 80.5% | 42.1% | 97.2% | 98.6% | 104% |
| Cn1nnnc1-c1cccc(NC(=O)c2ccc(Oc3ccccc3)cc2)c1 [CBK297872] | 118% | 74.5% | 30.8% | 124% | 73.3% | 27.8% | 95.1% | 88.4% | 89.1% |
| O=C(O)c1[nH]c2ccccc2c1C(c1ccsc1)c1c(C(=O)O)[nH]c2ccccc12 [CBK267811] | 49.5% | 80.4% | 22.6% | 113% | 109% | 85.2% | 99.3% | 106% | 121% |
| Cc1noc(NS(=O)(=O)c2ccc(NC(=O)COc3cccc(Br)c3)cc2)c1C [CBK264086] | 93.1% | 45.5% | 20.6% | 96.8% | 38.7% | 17.8% | 89.3% | 91.3% | 94.3% |
| Cc1cc(Br)ccc1S(=O)(=O)N(C)c1ccc(N2CCNCC2)c2ccccc12 [CBK016170C] | 63.9% | 26.9% | 12.9% | 106% | 75.3% | 35.2% | 91.8% | 92.1% | 112% |
| N#CC(CCCN1CCN(c2ccccc2)CC1)(c1ccccc1)c1ccccc1 [CBK002243C] | 42.5% | 23.5% | 17.3% | 106% | 74% | 41.5% | 99.6% | 105% | 118% |
| N#Cc1c(Nc2cccc(C(F)(F)F)c2)sc(C(=O)c2ccc3c(c2)OCO3)c1N [CBK074399] | 2.52% | 2.64% | 6.62% | 10.1% | 11.2% | 17.7% | 87.7% | 85.9% | 81.1% |
| CC(=O)Nc1ccc(S(=O)(=O)Nc2ccc(C(=O)Nc3ccc(F)cc3)cc2)cc1 [CBK050401] | 114% | 48.5% | 30% | 101% | 31.9% | 14.2% | 93.4% | 87.7% | 91.8% |
| c1ccc(-c2nc3cc4ccccc4cc3[nH]2)nc1 [CBK000130] | 98.2% | 31.5% | 14.1% | 133% | 40.2% | 18.3% | 99.1% | 95.7% | 90.5% |

— article PMC12040169 (PLOS Biology, 2025)
